Like-named read-outs stand apart in the source and are kept apart here.

For one assay, the target named is T1, PRL-3 (Homo sapiens, UniProt O75365).
T1 construct: His-TEV (cleaved yes); made in house
The experiment in a line: DiFMUP phosphatase activity assay for PRLs. The assay is classed as biochemical. Here is the method:
Biochemical phosphatase activity measurements were carried out in the presence of different concentrations of various polyphenols, compounds 1–11 (Fig 1), using recombinant PRL-3 and 6,8-difluoro-4-methylumbelliferyl phosphate (DiFMUP) as a fluorogenic substrate (see the experimental procedures). We observed that the monomeric epicatechins EGC and EC inhibit PRL-3 only weakly, with a slightly better activity of EGC, which bears three hydroxyl groups at the B-ring. […] In general, as a basic structure activity-relationship the following trend was observed: a higher number of hydroxyl groups at the B-ring increased the activity slightly. […] The influence of the stereochemistry at C(2)–C(3) was studied by using GCG (the trans-epimer of EGCG).
(§1) Fig 2 Effect of polyphenolic compounds 8 (A), 9 (B), 10 (C) and 11 (D) on the phosphatase activity of PRL-1, PRL-2, PRL-3, PP1, and PP2A. Proteins were incubated for 30 min with 0–1000 μM of the corresponding procyandin 8–11. Phosphatase activity was measured in the presence of DiFMUP at 25°C using the concentration corresponding to the KM of each protein. The KM for PRLs was determined separately (PRL-3 = 21 μM, PRL-2 and PRL-1 = 24 μM). The KM for PP1 (91 μM) and for PP2A (100 μM) was taken from the literature. Protein concentrations are 50 nM for all PRLs and 2 mU for PP1 and 0.05 U for PP2A (see the Experimental Procedures). Phosphatase activity in the absence of inhibitors was set as 100%. Data represent means ± standard errors of the mean (n = 3–5).
(§2) DiFMUP assay for PRLs: In a final reaction volume of 100 μL the PRLs (50 nM final concentration) were incubated with decreasing concentrations of the inhibitory polyphenols for 30 minutes at 25°C. The buffer conditions were 108 mM TrisCl (pH 7.5), Triton 0.05% (v/v), DTT 27.0 mM, NaCl 811 mM. After the incubation time 20 μL DiFMUP (6,8-Difluoro-4-methylumbelliferyl phosphate) was added to reach a final concentration of 21 μM for PRL-3 and 24 μM for PRL-1 and PRL-2. On a Tecan safire2 (Tecan, Salzburg, Austria) plate reader dephosphorylation of the substrate to its fluorescent product was monitored by following the emission at 358 nm with excitation at 452 nm for 20 minutes. All measurements were done in triplicates, and the experiments were repeated at least three times. The slopes of the initial phases were obtained by linear regression of the data points. The normalized reaction rates were plotted versus the log of the inhibitor concentrations and the IC50 values were obtained by fitting the curves using the one site competition model of GraphPad Prism (GraphPad Software, Version 5). KM values were determined by measuring reaction kinetics of substrate dilution series. Initial velocities were plotted against DiFMUP concentration and the data was analyzed by Michaelis-Menten kinetics curve fitting of GraphPad Prism. A final DMSO content of 0.4% was maintained for the monomeric catechins. Due to the high water solubility of the procyanidins DMSO was not required and measurements were done in assay buffer only.

The next assay has as its target T2, PRL-1 (Homo sapiens, UniProt Q93096).
T2 construct: His-TEV (cleaved yes); made in house
T2 sequence (Q93096 1-173): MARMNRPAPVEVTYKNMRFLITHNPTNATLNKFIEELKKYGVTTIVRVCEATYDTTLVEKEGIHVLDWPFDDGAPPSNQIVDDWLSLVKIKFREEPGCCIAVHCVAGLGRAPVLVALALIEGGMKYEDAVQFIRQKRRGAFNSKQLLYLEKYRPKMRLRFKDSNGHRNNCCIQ
As to the kind of experiment: DiFMUP phosphatase activity assay for PRLs. The assay is classed as biochemical. As to the method:
as §1, §2

The next assay concerns the target T3, PP1 (Oryctolagus cuniculus, UniProt P62139).
T3 construct: purchased NewEngland Biolabs; host or cells: E. coli
The experiment in a line: DiFMUP assay for PP1. Type of assay: biochemical. As to the method:
as §1
(§3) BSA, which is usually supplemented to the assay buffer for stabilizing the PPs was however excluded, as BSA is known to form complexes with polyphenolic compounds [40–42] and thus would decrease the concentrations of the inhibitor in the assay. […] In contrast, the phosphatase activity of PP2A was suppressed to a much lesser extent with weak (for trimer 9 and hexamer 11) and strong statistical significance (dimer 8 and tetramer 10). Thus our results corroborate the data reported previously.
DiFMUP assay for PP1: In a final reaction volume of 100 μL PP1c (2 mU final concentration, according to manufacturer’s instructions) were incubated with decreasing concentrations of the inhibitory polyphenols for 30 minutes at 25°C. The assay buffer contained 25 mM imidazole (pH 7.4), 1 mM dithiothreitol (DTT), and 50 mM NaCl. Bovine serum albumin (BSA) was excluded due to possible binding of the polyphenolic compounds. After the incubation time 20 μL DiFMUP (6,8-Difluoro-4-methylumbelliferyl phosphate) was added to reach a final concentration of 100 μM. Monitoring of the fluorescent dephosphorylation product was monitored and data analyzed as described above.

In the next assay the target is T4, PRL-2 (Homo sapiens, UniProt Q12974).
T4 construct: His-TEV (cleaved yes); made in house
T4 sequence (Q12974 1-167): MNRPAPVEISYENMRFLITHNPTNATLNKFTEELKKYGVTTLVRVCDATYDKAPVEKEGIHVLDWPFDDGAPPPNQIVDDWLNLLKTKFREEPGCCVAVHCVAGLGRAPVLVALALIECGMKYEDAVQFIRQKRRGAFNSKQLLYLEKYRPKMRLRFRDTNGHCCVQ
As to the kind of experiment: DiFMUP phosphatase activity assay for PRLs. The following applies: 50 nM PRL-2, 30 min preincubation, 25°C, 24 μM DiFMUP; mean ± SEM (n = 3–5); read-out: IC50 (Ki) PRL-2. Type of assay: biochemical. As to the method:
as §1, §2

The target of a further assay is T5, PP2A (Homo sapiens, UniProt P67775).
T5 construct: purified from human red blood cells; purchased Merck Millipore; host or cells: human red blood cells
The experiment in a line: DiFMUP assay for PP2A. The assay is classed as biochemical. The following applies: 0.05 U PP2A, 30 min preincubation, 25°C, no BSA, mean ± SEM (n = 3–5), read-out: IC50 (Ki) PP2A. As to the method:
as §1, §3
Chemicals and vendors were as follows: Synthesis of Procyanidins (dimer to dodecamer) was done as previously reported. EGCG, EGC, ECG and EC were synthesized as previously reported or purchased from Sigma. (+)-Catechin and 3-(4,5-dimethylthiazol-2-yl)-2,5-diphenyltetrazolium bromide (MTT) were obtained from Sigma. 6,8-Difluoro-4-Methylumbelliferyl Phosphate (DiFMUP), propidium iodide and calcein AM were from lifescience technologies. Cell dissociation solution (10X) was purchased from amsbio. PP1c (recombinant from E. coli) was purchased from NewEngland Biolabs and PP2A (purified from human red blood cells, contains different subunits according to manufacturer) from Merck Millipore. Transwell plates (BRANDplates) and insert stripes for the migration assay were purchased from Brand GmbH. Black 96 well plates (96F Nunclon Delta) were purchased from Thermo Scientific. Transparent 96 well assay plates with UV transparent bottom were purchased from Corning Inc. Wound healing experiments were carried out with μ-dish 35 mm culture inserts, which were purchased from Ibidi.
DiFMUP assay for PP2A: In a final reaction volume of 100 μL PP2A (0.05 U final concentration, according to manufacturer’s instructions) were incubated with decreasing concentrations of the inhibitory polyphenols for 30 minutes at 25°C. The assay buffer contained 50 mM TrisCl (pH 7.5), 250 mM NaCl, 0.1 mM EDTA, 1 mM MnCl2, and 2 mM dithiothreitol (DTT). […] Monitoring of the fluorescent dephosphorylation product was monitored and data analyzed as described above.

The test system of assay [1] is PRL-3 overexpressing HEK293 cells. The experiment in a line: Wound healing assay. Type of assay: cell-based. The note with it: 35 μM analog 3, PRL-3 overexpressing cells. Here is the method:
(§4) To study if procyanidin C2 is able to inhibit PRL-1 and PRL-3 in cells, HEK293 cells were treated in a wound-healing assay (see the experimental procedures). […] As a control the empty vector cell line was again utilized. […] The migration speed was for all cell lines similar when treated with 50 μM of 9. To further corroborate these findings we performed additionally a transwell assay as an alternative way to study cell migration.
(§5) Fig 6 Wound healing abilities of PRL-1 or PRL-3 overexpressing or empty vector control HEK293 cell lines were analyzed in the presence of compound 9 or medium only. Cells were seeded at a concentration of 800,000 cells per insert and procyanidin C2 (9) was added at a concentration of 25 and 50 μM. A) Pictures of the wound gaps were taken at 0 h and 7 h for both conditions (with and without treatment). B) Quantification of the wound healing experiment. Speed of migration is shown for combined data from different replicates, as mean ± SD (n = 38–88). Two-sided t-tests with Welsh correction were performed for p < 0.05. ns = not significant;***: < 0.001; **: < 0.01; *: < 0.05. C) Effect of polyphenolic compounds in a transwell assay on the cell migration of HEK293 empty vector and PRL-3 overexpressing cell lines. Cells were seeded at a concentration of 100,000 cells per insert and procyanidin C2 (9) was added at a final concentration of 25 and 50 μM. Migration was allowed for 16 h before harvesting and staining with calcein AM for fluorescent readout. Mean ± SD (n = 60–72) is shown for combined data from different replicates. Two-sided t-tests with Welsh correction were performed for p < 0.05. ns = not significant. D) Quantification of wound healing experiment including blocking PRL-1 and PRL-3 with analog 3. Speed of migration is shown for combined data from different replicates, as mean ± SD (n = 63–82). Two-sided t-tests with Welsh correction were performed for p < 0.05.
(§6) Wound healing experiments were carried out with μ-dish 35mm culture inserts. 8 × 10^5 cells/mL of the respective HEK293 stable cell lines were seeded into each of the two insert wells and allowed to settle for 40 h in the presence of tetracycline. Then the inserts were gently removed and growth medium supplemented with 7.5% FBS and 0.1% tetracycline was added as well as procyanidin C2 (9) or procyanidin B3 (8) at a final concentration of 25, 50 or 75 μM. For the experiment including blocking of PRLs with analog 3, the latter one was added at a final concentration of 35 μM, followed by addition of procyanidin C2 (9) at either 25 or 50 μM final concentration. Negative controls contained growth medium with FBS only. Pictures of the wound gap were taken at 0 h and 7 h time points. A Zeiss Cellobserver HS microscope was used with 10 × magnitude. For data analysis, in each experiment, the distances between both cell fronts at time point 0 h and 7 h were measured by taking 20 different measuring points. Then all the measurements from different replicates (4) for each experiment were combined and analyzed by t-test using Welsh correction in GraphPad Prism. Data are shown with 99% confidence intervals.

In assay [2] the test system is PRL-1 overexpressing HEK293 cells. The experiment in a line: Wound healing assay. Type of assay: cell-based. The following applies: 35 μM analog 3, PRL-1 overexpressing cells. Here is the method: as §4, §5, §6
[3] abbreviates: 50 nM PRL-3, 30 min preincubation, 25°C, 21 μM DiFMUP, mean ± SEM (n = 3–5), read-out: IC50 (Ki) PRL-3.

T1 sequence (O75365 whole entry): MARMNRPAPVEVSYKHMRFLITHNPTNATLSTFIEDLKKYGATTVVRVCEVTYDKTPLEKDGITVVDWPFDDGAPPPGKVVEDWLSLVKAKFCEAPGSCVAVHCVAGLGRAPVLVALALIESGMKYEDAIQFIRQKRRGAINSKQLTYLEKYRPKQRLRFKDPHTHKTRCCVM
T3 sequence (P62139 whole entry): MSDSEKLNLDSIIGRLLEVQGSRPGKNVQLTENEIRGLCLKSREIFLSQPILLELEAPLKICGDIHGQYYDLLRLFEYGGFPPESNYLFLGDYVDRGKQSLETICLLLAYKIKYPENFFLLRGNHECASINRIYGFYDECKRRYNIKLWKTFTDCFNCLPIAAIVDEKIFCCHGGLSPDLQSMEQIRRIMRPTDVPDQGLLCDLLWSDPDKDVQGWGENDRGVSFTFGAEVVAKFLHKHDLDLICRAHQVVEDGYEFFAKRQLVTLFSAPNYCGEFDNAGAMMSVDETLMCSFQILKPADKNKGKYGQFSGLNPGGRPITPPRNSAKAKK
T5 sequence (P67775 whole entry): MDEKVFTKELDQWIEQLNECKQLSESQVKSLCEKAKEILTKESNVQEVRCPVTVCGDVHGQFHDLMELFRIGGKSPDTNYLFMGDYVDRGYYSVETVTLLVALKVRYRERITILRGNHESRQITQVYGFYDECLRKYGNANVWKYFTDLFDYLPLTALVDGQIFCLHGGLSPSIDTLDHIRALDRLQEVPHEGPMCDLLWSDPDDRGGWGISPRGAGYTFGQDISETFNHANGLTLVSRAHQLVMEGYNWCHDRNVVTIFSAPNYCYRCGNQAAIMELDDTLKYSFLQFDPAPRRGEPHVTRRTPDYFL
T5 sequence (P30153 2-589 partner limits assumed): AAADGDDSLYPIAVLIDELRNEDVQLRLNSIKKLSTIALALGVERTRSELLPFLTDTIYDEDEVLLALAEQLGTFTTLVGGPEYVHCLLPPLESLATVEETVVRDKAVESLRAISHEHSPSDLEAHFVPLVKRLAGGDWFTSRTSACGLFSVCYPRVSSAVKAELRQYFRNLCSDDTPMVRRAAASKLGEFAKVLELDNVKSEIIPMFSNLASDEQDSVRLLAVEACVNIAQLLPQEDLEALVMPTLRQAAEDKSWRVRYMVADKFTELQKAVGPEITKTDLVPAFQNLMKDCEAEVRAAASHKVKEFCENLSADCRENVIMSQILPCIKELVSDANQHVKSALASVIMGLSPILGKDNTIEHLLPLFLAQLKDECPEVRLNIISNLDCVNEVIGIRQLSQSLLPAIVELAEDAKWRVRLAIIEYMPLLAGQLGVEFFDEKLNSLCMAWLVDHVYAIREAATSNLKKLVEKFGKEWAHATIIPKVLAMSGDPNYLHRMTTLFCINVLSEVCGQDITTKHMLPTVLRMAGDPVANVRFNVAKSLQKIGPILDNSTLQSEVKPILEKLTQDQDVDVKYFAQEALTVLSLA

Turning to `Oc1cc(O)c2c(c1)O[C@H](c1ccc(O)c(O)c1)[C@@H](O)C2` [(+)-Catechin (6), (+)-Catechin], the IC50 at PRL-3 (setting [3]) was 456 ± 65.6 µM; on PRL-1 (50 nM PRL-1, 30 min preincubation, 25°C, 24 μM DiFMUP, mean ± SEM (n = 3–5), read-out: IC50 (Ki) PRL-1), 158 ± 1.2 µM. Moreover, the “IC50 toward PRL-1 relative to IC50 values of the oligomers” value at PRL-1 worked out at 50 fold. Moreover, the “IC50 toward PRL-1 relative to PRL-3” value against PRL-1 is “about three times lower”.
As for `Oc1cc(O)c2c(c1)O[C@H](c1ccc(O)c(O)c1)[C@H](O)C2` [EC (1), (–)-epicatechin], on PRL-3 (setting [3]), the IC50 came out at 514 ± 68.2 µM.
Turning to `O=C(O[C@@H]1Cc2c(O)cc(O)cc2O[C@@H]1c1ccc(O)c(O)c1)c1cc(O)c(O)c(O)c1` [ECG (2), (–)-epicatechin-3-O-gallate], the “increase in PRL-3 inhibition of 3-gallate ester compared to non-gallate (2 vs 1, 4 vs 3)” value on PRL-3 is reported as “about two-fold increase”. Besides, the IC50 on PRL-3 (setting [3]) amounted to 181 ± 13.6 µM.
As to `Oc1cc(O)c2c(c1)O[C@H](c1cc(O)c(O)c(O)c1)[C@H](O)C2` [EGC (3), (–)-epigallocatechin], the IC50 on PRL-3 (setting [3]) came out at 285 ± 3.7 µM.
On the same count and under the same terms, as for `O=C(O[C@H]1Cc2c(O)cc(O)cc2O[C@@H]1c1cc(O)c(O)c(O)c1)c1cc(O)c(O)c(O)c1` [GCG (5)], the figure is 113 ± 10.7 µM.
As to `O=C(O)c1cc(O)c(O)c(O)c1` [Gallic acid (7), Gallic acid], the IC50 on PRL-3 was above 1000 µM. Besides, the “inhibition of PRL-3” value at PRL-3 (up to 1000 μM) is “did not show any inhibition”.
Turning to `Oc1cc(O)c2c(c1)O[C@H](c1ccc(O)c(O)c1)[C@@H](O)[C@@H]2c1c(O)cc(O)c2c1O[C@H](c1ccc(O)c(O)c1)[C@@H](O)[C@@H]2c1c(O)cc(O)c2c1O[C@H](c1ccc(O)c(O)c1)[C@@H](O)[C@@H]2c1c(O)cc(O)c2c1O[C@H](c1ccc(O)c(O)c1)[C@@H](O)[C@@H]2c1c(O)cc(O)c2c1O[C@H](c1ccc(O)c(O)c1)[C@@H](O)[C@@H]2c1c(O)cc(O)c2c1O[C@H](c1ccc(O)c(O)c1)[C@@H](O)C2` [Hexamer (11)], the IC50 on PRL-3 (setting [3]) was determined as 12.5 ± 1.8 µM; on PP1 (2 mU PP1c, 30 min preincubation, 25°C, DiFMUP, no BSA, mean ± SEM (n = 3–5), read-out: IC50 (Ki) PP1), 7 ± 2.3 µM; at PRL-2 it was 10 ± 0.4 µM; at PP2A it was 32.5 ± 4.8 µM. The “PP1 potency of hexamer compared to tetramer 10” value at PP1 was “increased only about two-fold”.
Consider `Oc1cc(O)c2c(c1)O[C@H](c1cc(O)c(O)c(O)c1)[C@H](O)C2` [analog 3, reference compound], for which the “migration speed, wound healing” value is “fell back to the baseline level of the empty vector cell line” in assay [1] and “a bit lower than the baseline” in assay [2].

In general, IC50 refers to the concentration needed to halve the response being measured.

The record behind these values is paper PMC4520450, “Procyanidins Negatively Affect the Activity of the Phosphatases of Regenerating Liver” (PLoS ONE, 2015).
